Laboratory results as given in patent publication US20130040952A1 (priority 2011, published 2013).

How the values were obtained:
Type in all cases: cell-based, recombinant influenza virus in WSN background
[1] = system: Y52H/Y289H double mutation rWSN virus; settings: read-out: Anti-rWSN IC50 (μM), NP Y52H/Y289H
[2] = system: compound 3061-resistant rWSN virus (Y52H mutation at NP)
[3] = system: nucleozin-resistant rWSN virus (Y289H mutation at NP)

For `O=C(NCCCN1CCOCC1)c1csc(Nc2ccc(Cl)c(Cl)c2)n1` [compound 1], the IC50 [1] was 1.8 µM, the “inhibition of 3061-resistant strain” value [2] was “capable of inhibiting” and the IC50 ([2]; read-out: Anti-rWSN IC50 (μM), NP Y52H) was 3.2 µM. For the same molecule, the “inhibition of nucleozin-resistant strain” value [3] was “capable of inhibiting” and the IC50 ([3]; read-out: Anti-rWSN IC50 (μM), NP Y289H) was 4 µM.
